According to PMC8080777, “Discovery, optimization, and evaluation of non-bile acid FXR/TGR5 dual agonists” (Scientific Reports, 2021):

Legend:
[1] = biological target: T1, FXR (Homo sapiens, UniProt Q96RI1); test: CHO cell-based FXR luciferase reporter assay (Indigo Biosciences); details: for FXR Efficacy (%) (1 µM) / FXR Efficacy (%) (10 µM) / FXR Efficacy (%) (0.1 µM): % vs OCA 1 µM as 100%
T1 construct: host or cells: CHO cells
T1 sequence (Q96RI1 1-486): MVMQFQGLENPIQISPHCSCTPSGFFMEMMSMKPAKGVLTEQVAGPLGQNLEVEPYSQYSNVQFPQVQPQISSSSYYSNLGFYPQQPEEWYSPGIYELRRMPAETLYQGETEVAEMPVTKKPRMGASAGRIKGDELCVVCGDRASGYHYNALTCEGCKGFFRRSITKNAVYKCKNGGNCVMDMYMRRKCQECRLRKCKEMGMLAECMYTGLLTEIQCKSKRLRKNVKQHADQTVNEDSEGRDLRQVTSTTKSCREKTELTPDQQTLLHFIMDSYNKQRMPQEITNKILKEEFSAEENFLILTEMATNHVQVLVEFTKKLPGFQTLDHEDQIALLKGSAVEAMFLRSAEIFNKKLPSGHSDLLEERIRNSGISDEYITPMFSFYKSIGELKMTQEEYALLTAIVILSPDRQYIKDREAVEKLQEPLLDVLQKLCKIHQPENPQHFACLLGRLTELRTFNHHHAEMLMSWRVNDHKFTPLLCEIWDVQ
Method: To evaluate direct agonist activities against FXR, test compounds were evaluated using a CHO cell-based FXR assay by Indigo Biosciences (State College, PA), in which cells were transfected with an FXR luciferase reporter system.
To directly evaluate the in vitro agonist activity towards FXR, test compounds were evaluated in CHO cells transfected with FXR responsive luciferase reporter (Nuclear Receptor & In Vitro Toxicology Solutions, Indigo Biosciences, State College, PA, USA). […] Each compound was tested in duplicate, and the average value was reported[35],[36].
(§1) The cell recovery medium (CRM, Human Farnesoid X Receptor (NR1H4, FXR reporter assay system, Indigo Biosciences, State College, PA, USA) and compound screening medium (CSM, Human Farnesoid X Receptor (NR1H4, FXR reporter assay system, Indigo Biosciences, State College, PA, USA) were removed from the freezer and thawed in a water bath at 37 °C. Test compounds were dissolved in dimethyl sulfoxide (DMSO, FUJIFILM Wako Pure Chemical Corporation, Osaka city, Osaka, Japan), and the treatment medium was prepared and diluted with CSM to achieve a final concentration of 0.2% total DMSO. The reporter cells were thawed by transferring 3.3 mL CRM at 37 °C into tubes of frozen cells. The tube containing reporter cells was recapped, and it was immediately place in a 37 °C water bath for 5 min. The reporter cells were gently inverted several times, and 100 µL cell suspension was dispensed into each well. One hundred microliters of treatment media was added into wells. Subsequently, the assay plate was kept at 37 °C, and it was incubated with 5% CO2 for 22 h. To prepare luciferase detection reagent (LDR), the detection substrate was gently mixed with detection buffer, media contents were removed from each well, and 100 µL LDR was added to each well of the assay plate. The assay plate was allowed to rest at room temperature for 5 min, and luminescence was quantified using the Multi-Mode Microplate Reader (FlexStation 3, Molecular Devices Inc., San Jose, CA, USA)[36].
S4. In vitro, in vivo assay, and selectvity.
To directly evaluate the in vitro agonist activity towards FXR, test compounds were evaluated in CHO cells transfected with FXR responsive luciferase reporter (Nuclear Receptor & In Vitro Toxicology Solutions, Indigo Biosciences, State College, PA, USA). Cells were incubated with […]
(FlexStation 3, Molecular Devices Inc., San Jose, CA, USA). Efficacies are reported relative to […]
reporter on of 1 µM. Each compound was tested in duplicate, and the average value was […]
as §1, with “sulfoxide (DMSO ,” for “sulfoxide (DMSO,”, “Osaka, Jap an),” for “Osaka, Japan),”, “a 37°C” for “a 37 °C”, “5% CO 2” for “5% CO2”, “using […]” for “using the Multi-Mode Microplate Reader (FlexStation 3, Molecular Devices Inc., San Jose, CA, USA)[36].”

[2] = biological target: T2, TGR5 (Homo sapiens, UniProt Q8TDU6); test: TGR5 cAMP assay in CHO cells transfected with TGR5 (cAMP Hunter eXpress, Discover X); type: cell-based
T2 construct: host or cells: CHO cells
T2 sequence (Q8TDU6 1-330): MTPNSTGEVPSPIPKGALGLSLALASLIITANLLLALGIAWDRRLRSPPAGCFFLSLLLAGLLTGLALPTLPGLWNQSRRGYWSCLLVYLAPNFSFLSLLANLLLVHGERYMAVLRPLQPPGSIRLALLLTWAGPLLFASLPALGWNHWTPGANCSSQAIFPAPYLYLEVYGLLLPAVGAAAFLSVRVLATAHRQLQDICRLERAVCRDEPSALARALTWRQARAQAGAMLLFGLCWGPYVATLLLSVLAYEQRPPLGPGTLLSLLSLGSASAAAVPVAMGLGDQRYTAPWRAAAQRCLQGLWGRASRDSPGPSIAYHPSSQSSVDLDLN
Method: TGR5 agonist activity was evaluated by transfecting CHO cells with TGR5 using the Discover X expression kit (cAMP Hunter eXpress GPCR Assay, Discover X Fremont, CA). Cells were incubated with test compounds for 0.5 h, and intracellular cAMP levels were measured using the multi-mode microplate reader.
(§2) TGR5 agonist activity was evaluated by transfecting CHO cells with TGR5 using the Discover X expression kit (cAMP Hunter eXpress Assay Kit, Discover X Fremont, CA, USA). Cells were incubated with the test compounds for 0.5 h, and intracellular cAMP levels were measured using Multi-Mode Microplate Reader (FlexStation 3, Molecular Devices Inc., San Jose, CA, USA).
Each compound was tested at concentrations of 10, 1, or 0.1 µM in duplicate (n = 2), with the average value shown.
S4. In vitro, in vivo assay, and selectvity. […]
In vitro TGR5 agonist assay protocol
as §2
Each compound was tested at concentrations of 10, 1, or 0.1 µM in duplicate (n=2), with the […]
parameter logistic equation, Y = min + (max - min)/(1 + 10^(n * (log10(EC50) - log10(conc)))), in […]

Compound | FXR Efficacy (%) (1 µM) [1] | TGR5 Efficacy (%) (10 µM) ([2]; % vs INT-767 10 µM as 100%) | TGR5 agonist activity (in words) [2] | FXR agonist activity (in words) [1] | FXR Efficacy (%) (10 µM) [1] | FXR Efficacy (%) (0.1 µM) [1] | TGR5 Efficacy (%) (1 µM) ([2]; 1 µM, % vs INT-767 10 µM as 100%)
Cc1cnccc1C(=O)N(Cc1ccc(-c2ccc(N(C)C)cc2)cc1)c1cc(Cl)cc(N2CCC2)c1 [Compound 13n] | 20.2% | 10.2% |  |  |  |  | 
Cc1cnccc1C(=O)N(Cc1ccc(-c2ccc(N(C)C)cc2)cc1)c1cc(Cl)cc(-c2cnn(C(C)C)c2)c1 [Compound 13o] | 68.8% | -1.5% |  |  |  |  | 
Cc1cnccc1C(=O)N(Cc1ccc(-c2ccc(N(C)C)cc2)cc1)c1cc(Cl)ccc1C [Compound 13p] | 1.9% | 93.4% | good potency against TGR5 |  |  |  | 
Cc1cnccc1C(=O)N(Cc1ccc(-c2ccc(N(C)C)cc2)cc1)c1cc(Cl)ccc1Cl [Compound 13q] | 1.5% | 75.2% | good potency against TGR5 |  |  |  | 
Cc1cnccc1C(=O)N(Cc1ccc(-c2ccc(N(C)C)cc2)cc1)c1cc(Cl)cc(Cl)c1C [Compound 13r] | 8.6% | 91.9% | good potency against TGR5 |  |  |  | 
Cc1cnccc1C(=O)N(Cc1ccc(-c2ccc(N(C)C)cc2)cc1)c1cccc(-c2cnn(C(C)C)c2)c1C [Compound 13s] | 61.0% | 24.1% | moderate FXR/TGR5 agonist activity | moderate FXR/TGR5 agonist activity |  |  | 
Cc1cnccc1C(=O)N(Cc1ccc(-c2ccc(N(C)C)cc2)cc1)c1cccc(-c2cnn(C(C)C)c2)c1F [Compound 13t] | 92.6% | 8.3% |  | strong FXR agonist activities |  |  | 
COC(=O)/C=C/c1cccc(N(Cc2ccc(-c3ccc(N(C)C)cc3)cc2)C(=O)c2ccncc2C)c1F [Compound 13u] | 90.3% | -2.5% |  | strong FXR agonist activities |  |  | 
CCc1cnccc1C(=O)N(Cc1ccc(-c2ccc(N(C)C)cc2)cc1)c1cc(Cl)cc(Cl)c1 [Compound 13v] | 21.3% | 65.3% |  |  |  |  | 
CN(C)c1ccc(-c2ccc(CN(C(=O)c3ccncc3C3CC3)c3cc(Cl)cc(Cl)c3)cc2)cc1 [Compound 13w] | 22.7% | 73.1% |  |  |  |  | 
CN(C)c1ccc(-c2ccc(CN(C(=O)c3ccncc3Cl)c3cc(Cl)cc(Cl)c3)cc2)cc1 [Compound 13x] | 62.1% | 9.8% |  |  |  |  | 
CN(C)c1ccc(-c2ccc(CN(C(=O)c3ccncc3Br)c3cc(Cl)cc(Cl)c3)cc2)cc1 [Compound 13y] | 51.6% | -2.0% |  |  |  |  | 
CN(C)c1ccc(-c2ccc(CN(C(=O)c3ccncc3C(F)(F)F)c3cc(Cl)cc(Cl)c3)cc2)cc1 [Compound 13z] | 10.6% | 24.4% |  |  |  |  | 
Cc1cnccc1C(=O)N(C[C@H]1CC[C@H](c2ccccc2)CC1)c1cc(Cl)cc(Cl)c1 [Compound 20a] | 52.2% | 22.3% |  |  |  |  | 
Cc1cnccc1C(=O)N(C[C@H]1CC[C@H](c2ccc(N(C)C)cc2)CC1)c1cc(Cl)cc(Cl)c1 [Compound 20b] | 47.1% | 31.1% |  |  | 106.8% |  | 
Cc1cccc([C@H]2CC[C@H](CN(C(=O)c3ccncc3C)c3cc(Cl)cc(Cl)c3)CC2)c1 [Compound 20c] | 51.7% | 5.7% |  |  |  |  | 
COc1ccc([C@H]2CC[C@H](CN(C(=O)c3ccncc3C)c3cc(Cl)cc(Cl)c3)CC2)cc1C [Compound 20d] | 55.2% | 28.8% | weak TGR5 agonist | partial FXR agonists | 129.6% |  | 
COc1ccc([C@@H]2CC[C@@H](CN(C(=O)c3ccncc3C)c3cc(Cl)cc(Cl)c3)C(C)C2)cc1C (stereo partly shown) [Compound 20e] | 69.1% | 33.9% | weak TGR5 agonist | partial FXR agonists | 72.6% |  | 
COc1ccc(C23CCC(CN(C(=O)c4ccncc4C)c4cc(Cl)cc(Cl)c4)(CC2)CC3)cc1C [Compound 20f] | 90.3% | 28.8% | weak TGR5 agonist | partial FXR agonists | 64.3% |  | 
COc1ccc(C2C3CCC2CC(CN(C(=O)c2ccncc2C)c2cc(Cl)cc(Cl)c2)C3)cc1C (stereo not shown) [Compound 20g] | 51.1% | -5.2% |  |  |  |  | 
COc1ccc(C23CCC(CN(C(=O)c4ccncc4C)c4cc(F)cc(Cl)c4)(CC2)CC3)cc1C [Compound 20i] | 89.2% | 62.1% |  |  |  | 62.6% | 
CCc1cnccc1C(=O)N(CC12CCC(c3ccc(OC)c(C)c3)(CC1)CC2)c1cc(F)cc(Cl)c1 [Compound 20j] | 71.7% | 71.1% |  |  |  | 13.5% | 21.5%
Cc1cnccc1C(=O)N(CC12CCC(c3ccc4c(c3)CCO4)(CC1)CC2)c1cc(Cl)cc(Cl)c1 [Compound 20m] | 91.5% | 72.4% |  |  |  | 58.5% | 
